Experimental data from patent US11857601B2, “Pharmaceutical composition for cancer treatment comprising fusion protein including IL-2 protein and CD80 protein and anticancer drug” (GI INNOVATION, INC., priority 2020, dated 2024).

Tests used:
[1] = tested on: TC1 cells; test: mGI-101, Cisplatin, Pemetrexed and anti-PD-1 antibody, 1st line and maintenance therapy, TC1 tumor model; format: in vivo, C57BL/6 mice; conditions: mGI-101 3 mg/kg i.p. QW; compared with anticancer chemotherapeutic agent and anti-PD-1 antibody
Protocol: Mouse-derived lung cancer cell line, TC1, was purchased from ATCC (USA) and used for the test.
TC1 cells were cultured in RPMI1640 medium (Gibco) containing 10% FBS (Gibco) and 1% antibiotic/antifungal agent (Gibco). The cultured cells were harvested using trypsin (Gibco), and then 1×10^6 of TC1 cells were subcutaneously injected into the right flank of C57BL/6 female mice (7-week-old) in order to establish an allotransplanted tumor model.
The mice were randomly assigned based on tumor volume (˜100 mm^3), each group including 13 to 19 mice. The tumor grafts were identified about day 2 after cell inoculation.
The test was divided into the 1st line treatment and the anticancer maintenance therapy. […]
Clinical symptoms such as a disease and a behavioral change were observed once a day during the test period, and deceased animals were identified, and the mice were sacrificed when the tumor size reached a size of 4,000 mm^3. The size of the TC1 solid cancer was measured using a tumor 3D scanner (TM900, Peria, Belgium). […] The anti-tumor efficacy was evaluated as compared with the mouse IgG4 control. […]

[2] = tested on: MC38; test: mGI101 and anti-PD-1 antibody in MC38 allotransplanted tumor model; format: in vivo, C57BL/6 mice
Protocol: Rodent-derived colorectal cancer cells, MC38, were purchased from Kerafast (USA) and used for the test. MC38 cells were cultured in RPMI1640 medium (Gibco) containing 10% fetal bovine serum (Gibco) and 1% antibiotic/antifungal agent (Gibco). The cultured cells were harvested using trypsin and then suspended in PBS. In order to establish an allotransplanted tumor model, 1×10^6 MC38 cells were subcutaneously injected into the right flank of C57BL/6 female mice (7-week-old).
The mice were randomly assigned based on tumor volume (30 mm^3), each group including 5 mice. The tumor grafts were identified about day 2 after cell inoculation.
Clinical symptoms such as a disease and a behavioral change were observed once a day during the test period, and deceased animals were identified. At the end of the test period, the animals were sacrificed. The size of the MC38 solid cancer was measured using a tumor 3D scanner (TM900, Peria, Belgium). […] The anti-tumor efficacy was evaluated as compared with the vehicle control. All statistical calculations were performed using Prism 8.0 (Graph Pad Software Inc, USA). The comparison of tumor volume measurements was made through one-way analysis of variance (at the end of this test) followed by Bonferroni's multiple comparison test. A p value of less than 0.05 was considered significant.

[3] = tested on: MDA-MB-231 cells; test: GI101 and Keytruda in humanized mice xenotransplanted with MDA-MB-231; format: in vivo, human
Protocol: Fetal bovine serum (FBS, 16000-044, Thermofisher scientific, USA), penicillin-streptomycin; 10,000 units/ml penicillin and 10,000 μg/ml streptomycin (15140122, Thermofisher scientific, USA); and RPMI1640 (A1049101, Thermofisher scientific, USA) per 100 ml were mixed and used.
The cells were suspended using Trypsin-EDTA (Cat. 25200-072, Thermofisher scientific, USA). The suspended cells were collected by centrifugation (125×g, 5 minutes) using a centrifuge, transferred to a new medium and a new flask, and passage cultured. The cultured cells were put to a centrifugation tube on the day of cell line transplantation and then collected. […] 8-week-old female NSGb2m (NOD.Cg-B2m^tm1UncPrkdc^scidIl2rg^tm1Wjl/SzJ) mice were purchased from Joongang Bio (Korea) and used for the test. The body weight was measured the next day after the end of the quarantine and acclimation period, and then the human-derived PBMC cell suspension (5×10^6 cells/0.2 ml) prepared for healthy animals was filled into a disposable syringe and administered to the caudal vein of the animals. General symptoms were observed once a day after cell transplantation.
A certain period of time after the cell transplantation, the tumor volume was measured for animals with no abnormalities in the health condition of the animals, and 32 subjects were selected so that the average of each group reached 40 to 80 mm^3. The selected animals were grouped into a total of 4 groups as evenly as possible based on tumor volume and body weight, each group including 8 animals.
General symptoms such as appearance, behavior, and excrement were observed once a day during the observation period, and deceased animals were identified. Body weight was measured on the day of cell line transplantation, twice a week, and on the day of animal sacrifice. The major axis (maximum length, L) and minor axis (perpendicular width, W) of the tumor were measured using a caliper (Digital caliper, mitutoyo, Japan) three times a week during the observation period, and the tumor volume (TV) was calculated by substituting them into the following equations.
The tumor volume before administration of each subject was set as the value measured at the time of grouping.

[4] = tested on: HCT116 cells; test: Cancer cell killing, GI-101 and Cetuximab, HCT116 with NK cells; format: cell-based, human; conditions: GI-101 100 nM, Cetuximab 68.6 nM, 24 hours
Text: HCT116 cells were purchased from the Korea cell line bank and cultured in McCoy's 5A medium (ATCC) containing 10% FBS (Gibco) and 1% antibiotic/antifungal agent (Gibco). For use in cancer cell killing test, the cells were harvested using trypsin (Gibco), and then suspended in McCoy's 5A medium, and then dead cells and debris were removed using Ficoll (GE Healthcare Life Sciences) solution. The cells suspended in McCoy's 5A medium were carefully layered on ficoll solution. The cell layer with a low specific gravity formed by centrifuging at room temperature at 350×g for 20 minutes was collected with a pipette, washed with PBS (Gibco), and then centrifuged at room temperature at 350×g for 5 minutes. The separated cell layer was made into a suspension of 2×10^5 cells/mL with FBS-free RPMI1640 medium. […]
In order to identify the effect of killing the cells, a CytoTox Green reagent ([…] ™ CytoTox Green, Satorius) that binds to the DNA of cells to be killed was prepared in 1 μl per 1 mL of RPMI1640 medium containing 5% human AB serum (Sigma). The prepared medium was used for dilution of the test substance, and the effect of killing the cells could be quantitatively identified by staining the cells to be killed when the test substance was co-cultured with cancer cell lines and PBMCs. […]

[5] = day 42 vs day 21 after tumor transplantation, 8 animals per group

Substance | anticancer effect, anticancer maintenance therapy [1] | anticancer effect / anti-tumor efficacy ([2]; 16 days, mGI101 6 mpk alone, anti-PD-1 5 mpk, combination mGI101 0.6 mpk + anti-PD-1 5 mpk, vs control) | individual tumor sizes ([2]; mGI101 6 mpk alone (compared with anti-PD-1 group), anti-PD-1 5 mpk, combination 0.6 mpk + 5 mpk) | health state of test animals after administration ([2]; mGI101 alone and in combination with anti-PD-1 antibody, i.p.) | tumor growth ([3]; GI101 6 mg/kg, Keytruda 5 mg/kg, 4 administrations, compared with the control (hIgG4)) | number of mice with tumor growth inhibition rate of 30% or more [3, 5] | number of mice with tumor growth inhibition rate of 50% or more [3, 5] | number of mice with tumor growth inhibition rate of 80% or more [3, 5] | level of killing cancer cells [4]
mGI101: fusion protein: mouse CD80, Ig hinge, Fc domain, linker, IL-2 variant (2M) (R38A, F42A); SEQ ID NO: 15 | as much anticancer effect as the group having received an anticancer chemotherapeutic agent and an anti-PD-1 antibody | anticancer effect was also shown | more excellent tumor growth inhibitory effect | healthy state without signs of pathological abnormalities |  |  |  |  | 
GI101: fusion protein: human CD80 fragment, Ig hinge, Fc domain, linker, IL-2 variant (2M) (R38A, F42A); SEQ ID NO: 9 |  |  |  |  | tumor growth inhibition | 5 mice | 5 mice | 2 mice | high level of killing cancer cells
